PubChem BioAssay AID1919004 (Molecular Pharmacology Branch, DTP, NCI, 2023)

Test system: 883617-216-R-J1-PDC complex spheroids, growth, % test/control
Assay: Anticancer human tumor 883617-216-R-J1-PDC patient-derived bladder carcinoma cell line growth inhibition [AhR]
Conditions: for viability, T/C: stronger effect = lower value
Summary of the method: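 Agents were dosed in half-log steps down from roughly clinical Cmax, or from 10 microM where Cmax was unknown, alone and with AhR antagonists. Read-out: percent test/control growth of tumor spheroids containing HUVEC and MSC stromal cells.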

[1] = curve of first compound, second compound 0.1 µM
[2] = curve of first compound, second compound 0.316 µM
[3] = curve of first compound, second compound 1 µM
[4] = curve of first compound, second compound 3.16 µM
[5] = curve of first compound, second compound 10 µM
[6] = second compound 0.1 µM, first compound 0.0316 µM
[7] = second compound 0.1 µM, first compound 0.1 µM
[8] = second compound 0.1 µM, first compound 0.316 µM
[9] = second compound 0.1 µM, first compound 1 µM
[10] = second compound 0.316 µM, first compound 0.0316 µM
[11] = second compound 0.316 µM, first compound 0.1 µM
[12] = second compound 0.316 µM, first compound 0.316 µM
[13] = second compound 0.316 µM, first compound 1 µM
[14] = second compound 1 µM, first compound 0.0316 µM
[15] = second compound 1 µM, first compound 0.1 µM
[16] = second compound 1 µM, first compound 0.316 µM
[17] = second compound 1 µM, first compound 1 µM
[18] = second compound 3.16 µM, first compound 0.0316 µM
[19] = second compound 3.16 µM, first compound 0.1 µM
[20] = second compound 3.16 µM, first compound 0.316 µM
[21] = second compound 3.16 µM, first compound 1 µM
[22] = second compound 10 µM, first compound 0.0316 µM
[23] = second compound 10 µM, first compound 0.1 µM
[24] = second compound 10 µM, first compound 0.316 µM
[25] = second compound 10 µM, first compound 1 µM
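Also: exposure lasted 7 days after dosing on day 3 of spheroid growth.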

With `CCN(c1cc(-c2ccc(CN3CCOCC3)cc2)cc(C(=O)NCc2c(C)cc(C)[nH]c2=O)c1C)C1CCOCC1` + CC(CO)NC(=O)c1cc(-c2ccc(Cl)cc2)nn(-c2cnn(C)c2)c1=O the IC50 [1] was greater than 3000 nM, the IC50 [2] was greater than 3000 nM and the IC50 [3] was greater than 3000 nM. For the same compound, the IC50 [4] was greater than 3000 nM, the IC50 [5] was 2650 nM and the viability, T/C (second compound 0.1 µM, first compound 0.00949 µM) was 94.7%. It also gave a viability, T/C (second compound 0.1 µM, first compound 0.03 µM) of 101%, a viability, T/C (second compound 0.1 µM, first compound 0.0949 µM) of 75.5% and a viability, T/C (second compound 0.1 µM, first compound 0.3 µM) of 85.5%. For the same compound, the viability, T/C (second compound 0.1 µM, first compound 0.949 µM) was 118%, the viability, T/C (second compound 0.1 µM, first compound 3 µM) was 112% and the viability, T/C (second compound 0.316 µM, first compound 0.00949 µM) was 83.9%. It also gave a viability, T/C (second compound 0.316 µM, first compound 0.03 µM) of 70.8%, a viability, T/C (second compound 0.316 µM, first compound 0.0949 µM) of 76.5% and a viability, T/C (second compound 0.316 µM, first compound 0.3 µM) of 88.5%. The viability, T/C (second compound 0.316 µM, first compound 0.949 µM) was 77.7%, the viability, T/C (second compound 0.316 µM, first compound 3 µM) was 80.8% and the viability, T/C (second compound 1 µM, first compound 0.00949 µM) was 96.1%. For the same compound, the viability, T/C (second compound 1 µM, first compound 0.03 µM) was 63.2%, the viability, T/C (second compound 1 µM, first compound 0.0949 µM) was 92.5% and the viability, T/C (second compound 1 µM, first compound 0.3 µM) was 98.4%. For the same compound, the viability, T/C (second compound 1 µM, first compound 0.949 µM) was 124%, the viability, T/C (second compound 1 µM, first compound 3 µM) was 86% and the viability, T/C (second compound 3.16 µM, first compound 0.00949 µM) was 80.7%. For the same compound, the viability, T/C (second compound 3.16 µM, first compound 0.03 µM) was 85%, the viability, T/C (second compound 3.16 µM, first compound 0.0949 µM) was 122% and the viability, T/C (second compound 3.16 µM, first compound 0.3 µM) was 102%. For the same compound, the viability, T/C (second compound 3.16 µM, first compound 0.949 µM) was 60.4%, the viability, T/C (second compound 3.16 µM, first compound 3 µM) was 100% and the viability, T/C (second compound 10 µM, first compound 0.00949 µM) was 62.8%. The viability, T/C (second compound 10 µM, first compound 0.03 µM) was 88.9%, the viability, T/C (second compound 10 µM, first compound 0.0949 µM) was 74.5% and the viability, T/C (second compound 10 µM, first compound 0.3 µM) was 132%. For the same compound, the viability, T/C (second compound 10 µM, first compound 0.949 µM) was 98.5% and the viability, T/C (second compound 10 µM, first compound 3 µM) was 45%.

With `COc1cc(C2c3cc4c(cc3C(OC3OC5COC(C)OC5C(O)C3O)C3COC(=O)C23)OCO4)cc(OC)c1O` (stereo unspecified) + Cc1cncc(-c2nc(NCCc3c[nH]c4ccccc34)c3ncn(C(C)C)c3n2)c1 the IC50 [1] was greater than 10000 nM, the IC50 [2] was greater than 10000 nM and the IC50 [3] was greater than 10000 nM. It also gave an IC50 [4] greater than 10000 nM, an IC50 [5] of 68.8 nM and a viability, T/C [6] of 77.3%. It also gave a viability, T/C [7] of 81.3%, a viability, T/C [8] of 70% and a viability, T/C [9] of 66.8%. It also gave a viability, T/C (second compound 0.1 µM, first compound 3.16 µM) of 69.6%, a viability, T/C (second compound 0.1 µM, first compound 10 µM) of 57.4% and a viability, T/C [10] of 84.9%. The viability, T/C [11] was 81.1%, the viability, T/C [12] was 73.6% and the viability, T/C [13] was 65.3%. For the same compound, the viability, T/C (second compound 0.316 µM, first compound 3.16 µM) was 64.1%, the viability, T/C (second compound 0.316 µM, first compound 10 µM) was 60.9% and the viability, T/C [14] was 91.4%. For the same compound, the viability, T/C [15] was 86.4%, the viability, T/C [16] was 78.7% and the viability, T/C [17] was 71.5%. For the same compound, the viability, T/C (second compound 1 µM, first compound 3.16 µM) was 81.4%, the viability, T/C (second compound 1 µM, first compound 10 µM) was 64.7% and the viability, T/C [18] was 89.9%. It also gave a viability, T/C [19] of 89%, a viability, T/C [20] of 80.1% and a viability, T/C [21] of 79%. For the same compound, the viability, T/C (second compound 3.16 µM, first compound 3.16 µM) was 70%, the viability, T/C (second compound 3.16 µM, first compound 10 µM) was 65.6% and the viability, T/C [22] was 51.4%. For the same compound, the viability, T/C [23] was 50.3%, the viability, T/C [24] was 49.9% and the viability, T/C [25] was 39.1%. The viability, T/C (second compound 10 µM, first compound 3.16 µM) was 41.5% and the viability, T/C (second compound 10 µM, first compound 10 µM) was 45.5%.

`CC(CO)NC(=O)c1cc(-c2ccc(Cl)cc2)nn(-c2cnn(C)c2)c1=O` (stereo unspecified) was tested, and the IC50 (compound alone, run of 05/31/2022) was greater than 10000 nM.

`Nc1ncn(C2CC(O)C(CO)O2)c(=O)n1` (stereo unspecified) + CC(CO)NC(=O)c1cc(-c2ccc(Cl)cc2)nn(-c2cnn(C)c2)c1=O was tested, and the IC50 [1] was greater than 1000 nM, the IC50 [2] was greater than 1000 nM and the IC50 [3] was greater than 1000 nM. For the same compound, the IC50 [4] was greater than 1000 nM, the IC50 [5] was greater than 1000 nM and the viability, T/C (second compound 0.1 µM, first compound 0.00316 µM) was 101%. For the same compound, the viability, T/C (second compound 0.1 µM, first compound 0.01 µM) was 79.9%, the viability, T/C [6] was 76.8% and the viability, T/C [7] was 72.5%. The viability, T/C [8] was 81.7%, the viability, T/C [9] was 82.3% and the viability, T/C (second compound 0.316 µM, first compound 0.00316 µM) was 67.2%. The viability, T/C (second compound 0.316 µM, first compound 0.01 µM) was 90.2%, the viability, T/C [10] was 101% and the viability, T/C [11] was 76.4%. It also gave a viability, T/C [12] of 71.7%, a viability, T/C [13] of 89.7% and a viability, T/C (second compound 1 µM, first compound 0.00316 µM) of 90.7%. For the same compound, the viability, T/C (second compound 1 µM, first compound 0.01 µM) was 60.6%, the viability, T/C [14] was 78.8% and the viability, T/C [15] was 72.1%. For the same compound, the viability, T/C [16] was 75.1%, the viability, T/C [17] was 78.8% and the viability, T/C (second compound 3.16 µM, first compound 0.00316 µM) was 83.3%. It also gave a viability, T/C (second compound 3.16 µM, first compound 0.01 µM) of 61.1%, a viability, T/C [18] of 81% and a viability, T/C [19] of 76.8%. For the same compound, the viability, T/C [20] was 56.8%, the viability, T/C [21] was 78.1% and the viability, T/C (second compound 10 µM, first compound 0.00316 µM) was 59%. It also gave a viability, T/C (second compound 10 µM, first compound 0.01 µM) of 84.8%, a viability, T/C [22] of 115% and a viability, T/C [23] of 93.1%. For the same compound, the viability, T/C [24] was 75.7% and the viability, T/C [25] was 81.2%.
